Experimental findings from patent publication US5208248A, “Indazole-substituted five-membered heteroaromatic compounds” (Merck Sharpe & Dohme, Ltd., priority 1991, dated 1993) are described below.

The EC50 is the midpoint of the concentration-response curve.

Structures can show the parent of a compound that is named as a salt.

This assay deals with T1, 5-HT1 -like receptor (Oryctolagus cuniculus, UniProt P49144).
T1 construct: contraction of the saphenous vein of New Zealand White rabbits; from tissue; host or cells: saphenous vein of New Zealand White rabbits
The assay can be described thus: Agonist-mediated contraction of rabbit saphenous vein. Details: species or system New Zealand White rabbits. The note with it: from plots of percentage 5-HT (1 μm) response against agonist concentration, read-out: pEC50 (-log10 EC50), agonist potency (converted). How it is done: The activity of test compounds as agonists of the 5-HT1 -like receptor was measured in terms of their ability to mediate contraction of the saphenous vein of New Zealand White rabbits, using the procedure described in Arch. Pharm., 1990, 342, 111. Agonist potencies were calculated as -log10 EC50 (pEC50) values, from plots of percentage 5-HT (1 μm) response against the concentration of the agonist.

T1 sequence (P49144 whole entry): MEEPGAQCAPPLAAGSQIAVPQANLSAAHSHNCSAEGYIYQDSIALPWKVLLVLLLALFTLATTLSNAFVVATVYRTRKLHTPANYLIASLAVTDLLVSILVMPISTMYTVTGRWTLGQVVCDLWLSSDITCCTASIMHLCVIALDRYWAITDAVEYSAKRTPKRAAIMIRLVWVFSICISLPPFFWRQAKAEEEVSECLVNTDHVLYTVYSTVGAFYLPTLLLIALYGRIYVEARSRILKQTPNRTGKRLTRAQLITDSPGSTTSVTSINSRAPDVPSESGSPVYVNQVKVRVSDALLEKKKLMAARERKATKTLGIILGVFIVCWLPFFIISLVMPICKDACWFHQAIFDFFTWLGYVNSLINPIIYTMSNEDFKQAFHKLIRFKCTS

As to `Cc1noc(-c2ccc3[nH]nc(CCN)c3c2)n1` [Example 2, 2-[5-(3-Methyl-1,2,4-oxadiazol-5-yl)-1H-indazol-3-yl])ethylamine hydrogen oxalate], the EC50 was at most 10 µM.
